# Measured values taken from PubChem BioAssay AID179 (DTP/NCI, 2004).
# Activity calls are given as the source filed them.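 Rule for the calls: active = compounds giving half or more protection of infected cells from virus-caused growth loss, again on retest; inactive = the rest.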 Where a SMILES comes first, the peptide text is derived from it. [ ]: non-standard residue; d: D form. pGlu = O=C1CC[CH](C(=O)O)N1; Thz = O=C(O)[CH]1CSCN1
# System: CEM cells HIV-1 protection, formazan growth assay
# Experiment: NCI AIDS Antiviral Assay
# Conditions: for IC50: measured here: growth of uninfected CEM cells
# In short: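 Screen of anti-HIV-1 activity in human CEM cells using a formazan-based growth measurement at five drug concentrations. Hits with 50% or greater protection were repeated, and confirmation required reproducible complete protection.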
SMILES,EC50,IC50,outcome
O=C1c2cscc2C(=O)c2c(OCc3ccccc3)ccc(OCc3ccccc3)c21,> 200 µM,4.17 µM,–
CN(C)Cc1c(O)ccc2ccccc12,> 468 µM,245 µM,–
NC(CCc1ncc(-c2ccccc2)s1)C(=O)O (stereo not given),–,–,inactive
COc1ccc(C2(C)OC(=O)c3ccccc32)c2ccccc12 (stereo not given),–,–,inactive
CC(CCC/C=C/CCCN(C)C(=N)N)CC(C)C1OC(=O)C(C)C(O)/C=C/C(C)C(O)C(C)C(O)C(C)C(O)CCCC(O)CC2(O)OC(CC(OC(=O)CC(=O)O)CC(O)CC(O)C(C)C(O)/C=C/C=C/C1C)CC(O)C2O (stereo not given),–,–,inactive
Nc1nc(Cl)cc(NCCCCCCNc2cc(Cl)nc(N)n2)n1,–,–,inactive
O=C(OC1C2OC(=O)c3cc(O)c(O)c(O)c3Oc3cc4c(c(O)c3O)-c3c(cc(O)c(O)c3O)C(=O)OCC3OC(O)C(OC(=O)c5cc(O)c(O)c(O)c5Oc5cc6c(c(O)c5O)-c5c(cc(O)c(O)c5O)C(=O)OC1C(COC6=O)OC2O)C(OC(=O)c1cc(O)c(O)c(O)c1)C3OC4=O)c1cc(O)c(O)c(O)c1 (stereo not given),> 69.2 µM,34.7 µM,–
COc1ccccc1NC(=O)C(CC(C(=O)Nc1ccccc1OC)/C(C)=N/NC(=O)c1ccccc1O)/C(C)=N/NC(=O)c1ccccc1O (stereo not given),> 51.3 µM,> 51.3 µM,–
c1csc(-c2ccc(-c3ccc(-c4cccs4)s3)s2)c1,> 200 µM,> 200 µM,–
O=S1OC2(c3ccccc3-c3ccccc32)c2ccccc21 (stereo not given),–,–,inactive
CCOC(=O)/C(=C/N1C(=O)/C(=C/c2cccc([N+](=O)[O-])c2)SC1=S)C(=O)c1ccccc1,> 200 µM,18.6 µM,–
O=C(Nc1ccccc1)[C@H](O)[C@@H](O)C(=O)Nc1ccccc1,> 60.3 µM,49 µM,–
C[C@]12CC[C@H](O)CC1=CC[C@@H]1C2CC[C@]2(C)Nc3c(cnn3-c3ccccc3)CC12 (stereo not given in full),–,–,inactive
Cc1cc2c(c(S(=O)(=O)c3ccccc3[N+](=O)[O-])c1)NCCC2,1.55 µM,21.4 µM,–
O=C1CCC(=O)C(C(=O)CCC(=O)Nc2ccc(Cl)cc2)C1 (stereo not given),–,–,inactive
COc1cc(/C=C(\NC(=O)c2ccccc2)c2nc3ccc4c(c3[nH]2)C(=O)c2ccccc2C4=O)cc(OC)c1OC,–,–,inactive
CCCCON1C[C@H](OC(C)=O)C(OC(C)=O)[C@H](OC(C)=O)C1 (stereo not given in full),> 200 µM,> 200 µM,–
Cc1cc(C(F)(F)F)cc(-n2nc(NS(=O)(=O)c3cc(C)c(Cl)cc3S)nc2N)n1,> 200 µM,166 µM,–
CC(C)(C)OC(=O)NCC(CNC(=O)OC(C)(C)C)c1nc(C(N)=O)cs1,> 200 µM,> 200 µM,–
C/C(N=NC(=S)N1CC2CCC(CC2)C1)=C1\C=CC=CN1O,> 158 µM,1.86 µM,–
CCOC(=O)C1(c2ccccc2)CCN(CC(=O)c2ccccc2)CC1,> 102 µM,56.2 µM,–

SMILES,EC50,IC50,outcome
On1ccccc1=S,> 2 µM,1.32 µM,–
C=C1C(=O)OC2/C=C(/CO)C3(O)CC(O)C(C)(CC(OC(=O)/C(C)=C/C)C12)O3 (stereo not given),> 631 µM,1.17 µM,–
CCCCOC(=O)NC(Nc1ccc(S(=O)(=O)Nc2ccc(OC)nn2)cc1)(C(F)(F)F)C(F)(F)F,> 200 µM,> 200 µM,–
CCSSC1(C)C(=O)N2CCCC2C(=O)N1C (stereo not given),> 200 µM,11.5 µM,–
CSc1cc(-c2ccccn2)nc(-c2ccccn2)c1.CSc1cc(-c2ccccn2)nc(-c2ccccn2)c1.[Co+2].[O-][Cl+3]([O-])([O-])[O-],> 200 µM,0.12 µM,–
COc1ccc(C[C@]23CCC(=O)N2CCc2cc(OC)c(O)cc23)cc1O,–,–,inactive
COc1cccc2c1OC(c1cccc3ccccc13)C([N+](=O)[O-])=C2 (stereo not given),> 2 µM,1.07 µM,–
O=C1CCC(C(=O)N2CSCC2C(=O)O)N1 (stereo not given) ([pGlu]-[Thz]-OH; configuration not given here),> 200 µM,> 200 µM,–
OC1COC(n2c3ccc(Br)cc3c3ccc4c5ccccc5[nH]c4c32)C(O)C1O (stereo not given),> 112 µM,–,–
CC/C(=C/OC)P1(=O)OC(C)(C)CN1C(C)(C)C (stereo not given),> 200 µM,151 µM,–
COC(=O)[C@H]1N[C@@H](C(=O)OC)C23CCC[C@H]2CC[C@]1(C(OC)OC)C3,> 708 µM,389 µM,–
CC(C)C(=O)/C=C/c1ccc(Cl)cc1Cl,–,–,inactive
CC(=O)OCc1c(O)c2c([nH]c1=O)CCc1ccccc1-2,> 25.1 µM,> 25.1 µM,–
C[Si](C)(C)C1=C([Si](C)(C)C)C(Cl)(Cl)C1=O,> 20 µM,3.98 µM,–
O=C1c2cccc3cc([N+](=O)[O-])cc(c23)C(=O)N1c1ccc(OCCN2CCCC2)cc1,> 200 µM,5.62 µM,–
O=C(NS(=O)(=O)Nc1ccccc1)OCC1CCCCC1,> 200 µM,135 µM,–
CC1=C(C(=O)Nc2cccc(Cl)c2)C(c2ccccc2F)C(C(=O)Nc2cccc(Cl)c2)=C(C)N1,> 14.1 µM,> 14.1 µM,–
Clc1cccc2nncc(N3CC3)c12,–,–,inactive
CP(C)(=S)P(C)(C)=S,> 200 µM,110 µM,–
CC(=O)N1c2ccccc2C2=CC3C4C(=O)N(c5ccccc5)C(=O)C4C21C1C(=O)N(c2ccccc2)C(=O)C31 (stereo not given),–,–,inactive
CCOC(=O)C(Cl)(NC(=O)NC(Cl)(C(=O)OCC)C(F)(F)F)C(F)(F)F (stereo not given),> 200 µM,> 200 µM,–

SMILES,EC50,IC50,outcome
CC1(Nc2ccccc2)OC(=O)c2ccccc21 (stereo not given),> 200 µM,> 200 µM,–
C/C(=N\N)C(CN1CCOCC1)C(c1ccccc1)c1c(O)c2ccccc2oc1=O (stereo not given),> 89.1 µM,85.1 µM,–
CC(=O)OC(C)C(=O)C1c2cccc(O)c2C(=O)c2c(O)cc(C)cc21 (stereo not given),> 191 µM,3.24 µM,–
O=C1C(=Cc2c[nH]c3ccccc23)C(=O)c2ccccc21,> 200 µM,191 µM,–
O=[N+]([O-])c1nccn1COCCO,> 1320 µM,> 1320 µM,–
C=C(C)Cn1c(N)c(N=O)c(=O)n(CC)c1=O,> 200 µM,158 µM,–
O=C1OCC2(CO)SC(c3ccccc3)NC12 (stereo not given),> 525 µM,> 525 µM,–
Oc1ccc(/C=C/c2cc(O)cc3c2[C@@H](c2cc(O)cc4c2[C@H](c2cc(O)cc5c2[C@@H](c2cc(O)cc(O)c2)[C@H](c2ccc(O)cc2)O5)[C@@H](c2ccc(O)cc2)O4)[C@H](c2ccc(O)cc2)O3)cc1,12.3 µM,15.8 µM,–
CCOC(=O)/C(F)=C/c1ccc(F)cc1,> 123 µM,> 123 µM,–
CCOC(=O)C1C(C)C2(C#N)C(=N)OC1(C)C2(C#N)C#N (stereo not given),> 200 µM,83.2 µM,–
Cc1ccccc1NS(=O)(=O)c1c(N)ncn1C,> 832 µM,> 832 µM,–
S=C1NC2=C(CSC/C2=C\c2cccc(Br)c2)C(c2cccc(Br)c2)N1 (stereo not given),> 200 µM,19.5 µM,–
O=[N+]([O-])c1ccc(/C(=C\c2ccccc2)Cn2ccnc2)cc1,> 200 µM,31.6 µM,–
CCOc1ccc(N=C2NC(=O)C(CC(=O)Nc3ccc(Cl)cc3Cl)S2)cc1 (stereo not given),> 214 µM,> 214 µM,–
Cc1cc(C2=CSC3=NCCN23)ccc1Cl,> 200 µM,151 µM,–
Cc1nc(SCC(=O)Nc2ccc(Cl)cc2)c2sc(=S)n(-c3ccccc3)c2n1,> 200 µM,> 200 µM,–
COc1ccc([C@@H]2CC(=O)N2)cc1,> 200 µM,> 200 µM,–
CC(=O)NS(=O)(=O)c1ccc(N=Cc2cc(Cl)cc(Cl)c2O)cc1,> 200 µM,19.5 µM,–
CN(C)CCn1c(=O)oc2cc(C(=O)CN3CCOCC3)ccc21,> 200 µM,102 µM,–
CCCN(CCC)C(=O)c1c([N+](=O)[O-])cc(C(F)(F)F)cc1[N+](=O)[O-],–,–,inactive
Cc1c2c(n3c(nc4ccccc43)c1C#N)N(c1ccc(F)cc1)CC2,> 200 µM,> 200 µM,–

SMILES,EC50,IC50,outcome
CC(C)(C)c1ccc(-n2c3nc(=O)n(-c4ccccc4CO)c(=O)c-3cc3ccccc32)cc1,> 200 µM,23.4 µM,–
O=C1C(c2ccccc2)=C(c2ccccc2)C(c2ccc(CCCCCCc3ccc(C4=C(c5ccccc5)C(=O)C(c5ccccc5)=C4c4ccccc4)cc3)cc2)=C1c1ccccc1,> 1.23 µM,> 1.23 µM,–
COc1cc(O)c2c(c1)O[C@@H]1OCC[C@H]21,> 1200 µM,871 µM,–
O=C1CCCC/C(=C/c2ccccc2)N1,–,–,inactive
CC[C@]1(Cc2ccc(OC)c(OC)c2)[C@@H]2C[C@@H](C(=O)OC)ON2O[C@H](OC2CCCC2(c2ccccc2)c2ccccc2)[C@@H]1OC(C)=O (stereo not given in full),> 200 µM,21.4 µM,–
CC(C)=CCC[C@@H](C)C1=C(Nc2ccccc2)C(O)=C(C)C(=O)C1=O,> 200 µM,3.02 µM,–
O=Cc1ccc2c(c1-c1c(C=O)ccc3c1OCO3)OCO2,> 170 µM,79.4 µM,–
CCOC(OCC)c1ccc(-n2c(N)c(C#N)cnc2=S)c2c1OC2=NC=C(C#N)C#N,> 151 µM,> 151 µM,–
Clc1cc2c(c3ncccc13)OCN(CCc1ccccc1)C2,> 200 µM,0.955 µM,–
COC(=O)N1CCCCC(CCC#CC[Si](C)(C)C)C1=O (stereo not given),> 120 µM,110 µM,–
CC(=O)Oc1c(OC(C)C)c(C)c(O[Si](C(C)C)(C(C)C)C(C)C)c2[nH]c3ccccc3c12,> 100 µM,13.5 µM,–
C=C1SC(=Nc2ccccc2Cl)N(C(=O)c2sc3ccccc3c2Cl)C1(C)C,> 25.1 µM,11.5 µM,–
COC(=O)c1ccccc1CC1Cc2ccc3c(c2C1)CCC3 (stereo not given),> 200 µM,91.2 µM,–
CC1SC(N)=NN=C1c1c(O)c2ccccc2oc1=O (stereo not given),> 200 µM,148 µM,–
CN(C)c1ccc(/C=C2\Oc3cc(O)ccc3C2=O)cc1,> 200 µM,45.7 µM,–
CNC(=O)c1cc2nc3ccccc3c(=O)n2c2ccccc12,> 100 µM,> 100 µM,–
COc1ccc(Sc2ccccc2N)cc1,–,–,inactive
Cc1nc2c(=O)[nH]c3ccc(Cl)cc3c2o1,> 200 µM,148 µM,–
COc1ccc(C2N(c3ccc(F)cc3)C(=O)N3C(c4ccc(OC)cc4)N(c4ccc(F)cc4)C(=O)N23)cc1 (stereo not given),> 200 µM,> 200 µM,–
CC1=CO[C@@H]2O[C@@]3(C)CC[C@H]4[C@H](C)CC[C@@H]1[C@@]24OO3,> 200 µM,178 µM,–
